Assay results reported in ChEMBL document CHEMBL1201862, “PubChem BioAssay data set” (2004).
Calls of active or inactive are those of the source. For most assays here, no stated cut-off is given here; in the data, actives have a measured EC50 and inactives only a lower limit.

Columns and labels:
[1] = target: T1, Heat shock factor protein 1 (Mus musculus, UniProt P38532); experiment: HSF1 potentiators in luciferase reporter cells, confirmation, cell-based, NIH3T3, luminescence, dose retest (AID 435004); format: functional;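 further: stress induced by proteasome inhibitor MG132 added 30 min after compound; luciferase reporter driven by HSF1 response element in NIH3T3 cells; actives raise luminescence as potentiators of the MG132 stress response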
T1 sequence (P38532 whole entry): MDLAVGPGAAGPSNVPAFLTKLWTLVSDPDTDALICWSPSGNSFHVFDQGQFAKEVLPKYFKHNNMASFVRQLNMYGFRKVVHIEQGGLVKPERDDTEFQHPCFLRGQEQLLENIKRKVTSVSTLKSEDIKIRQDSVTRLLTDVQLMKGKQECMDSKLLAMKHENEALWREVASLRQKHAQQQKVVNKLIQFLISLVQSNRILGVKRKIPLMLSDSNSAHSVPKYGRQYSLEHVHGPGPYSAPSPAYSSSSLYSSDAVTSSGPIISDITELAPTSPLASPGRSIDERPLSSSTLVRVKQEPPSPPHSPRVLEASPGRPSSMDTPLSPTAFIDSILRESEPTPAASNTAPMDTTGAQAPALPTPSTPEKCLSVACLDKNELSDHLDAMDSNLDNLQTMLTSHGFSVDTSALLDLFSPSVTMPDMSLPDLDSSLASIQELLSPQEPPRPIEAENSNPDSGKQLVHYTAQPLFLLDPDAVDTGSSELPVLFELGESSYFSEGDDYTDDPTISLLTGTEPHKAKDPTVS

BJ [2] = experiment: cytotoxicity toward BJ-TERT fibroblasts, dose response, cell-based, RAS-independent, luminescence (AID 1933); format: functional; conditions: Homo sapiens
BJ [3] = experiment: cells; format: functional, cell-based; conditions: Homo sapiens
BJ [4] = experiment: cytotoxicity toward BJ-TERT-LT-ST fibroblasts, dose response, cell-based, RAS-independent, luminescence (AID 1935); format: functional; conditions: Homo sapiens;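 further: BJ fibroblasts immortalized with TERT plus LT and ST oncogenes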
[5] = cytotoxicity toward DRD oncogenic fibroblasts, dose response, cell-based, non-viral oncogenic, luminescence (AID 1934); format: functional; conditions: Homo sapiens
[6] = target: T2, Corticotropin-releasing factor receptor 2/Corticotropin-releasing factor-binding protein (Homo sapiens, UniProt P24387+Q13324); experiment: Dose Response confirmation of uHTS hits for small molecule antagonists of the CRF-binding protein and CRF-R2 receptor complex.; format: functional; conditions: read-out: IC50_Mean
T2 sequence (Q13324 whole entry): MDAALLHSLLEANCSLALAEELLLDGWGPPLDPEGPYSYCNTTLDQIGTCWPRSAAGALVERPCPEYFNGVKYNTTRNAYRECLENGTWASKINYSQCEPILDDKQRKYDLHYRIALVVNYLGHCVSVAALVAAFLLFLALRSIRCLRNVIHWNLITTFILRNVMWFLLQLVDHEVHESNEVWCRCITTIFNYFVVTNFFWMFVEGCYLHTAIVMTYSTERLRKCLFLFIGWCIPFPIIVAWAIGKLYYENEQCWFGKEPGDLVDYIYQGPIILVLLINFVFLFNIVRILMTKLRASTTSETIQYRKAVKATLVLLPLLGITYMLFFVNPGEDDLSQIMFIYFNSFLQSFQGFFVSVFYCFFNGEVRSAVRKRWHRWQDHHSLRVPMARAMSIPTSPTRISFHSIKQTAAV
T2 sequence (P24387 whole entry): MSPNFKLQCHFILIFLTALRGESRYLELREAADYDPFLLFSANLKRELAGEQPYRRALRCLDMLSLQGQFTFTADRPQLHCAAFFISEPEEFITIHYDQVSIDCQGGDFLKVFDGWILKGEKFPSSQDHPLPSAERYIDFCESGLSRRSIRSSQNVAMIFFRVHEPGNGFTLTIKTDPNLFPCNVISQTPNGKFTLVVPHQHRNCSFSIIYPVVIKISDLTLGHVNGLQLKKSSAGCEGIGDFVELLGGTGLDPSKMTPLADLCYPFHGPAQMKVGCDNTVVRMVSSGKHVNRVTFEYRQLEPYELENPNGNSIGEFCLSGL

[7] = target: T2, Corticotropin-releasing factor receptor 2/Corticotropin-releasing factor-binding protein; experiment: activators of CRF receptor 2 with binding protein – uHTS hits, confirmation (AID 602473); format: functional; conditions: read-out: EC50_Mean
cells [8] = format: functional, cell-based
cells [9] = format: functional, cell-based; remark: listed apart in the source
[10] = inhibitors of firefly luciferase expression or activity, dose response, H4 neuroglioma cells, luminescence (AID 1990); format: functional, cell-based
[11] = Luminescence Cell-Based Dose Response HTS to Identify Inhibitors of 5'UTR Stem-Loop Driven Prion Protein mRNA Translation in H4 Neuroglioblastoma Cells. [Related pubchem assays: 1827 (Project Summary), 1813 (Primary HTS)]; format: functional
[12] = inhibitors of SNCA 5'UTR-driven reporter translation, confirmation, H4 neuroglioma cells, luminescence (AID 1988); format: functional, cell-based
[13] = NIH-3T3 fibroblast cytotoxicity, dose response, cytotoxicity control, cell-based, fluorescence, Alamar Blue, secondary assay (AID 2327); format: functional;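 further: NIH-3T3 mouse fibroblasts cultured with fluconazole at 8 µg/mL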
[14] = C. albicans growth with fluconazole, confirmation, fluorescence, retest (AID 2467); format: functional, cell-based
[15] = inhibitors of intracellular T. cruzi replication, confirmation, NIH3T3 host cells, beta-gal luminescence (AID 2044); format: functional, cell-based;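 further: intracellular parasites grown in NIH/3T3 mouse fibroblasts as host cells; luminescent beta-galactosidase reporter signal from transgenic T. cruzi replicating inside host cells; inhibitors lower the luminescence signal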
[16] = cytotoxicity toward NIH3T3 fibroblasts, dose response, counter-screen, cell-based, ATP luminescence, mouse fibroblasts (AID 2010); format: functional;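 further: cells exposed to compound for about 90 hours before reading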
Cytochrome P450 2C9 = Cytochrome P450 2C9 (Homo sapiens, UniProt P11712)
[17] = Luminescence Cell-Based Dose Confirmation HTS to Identify Inhibitors of Platelet Dense Granule Release. [Related pubchem assays: 1663 (Primary HTS), 1678 (Summary of Project)]; format: functional

Sequence of Cytochrome P450 2C9 (P11712 whole entry): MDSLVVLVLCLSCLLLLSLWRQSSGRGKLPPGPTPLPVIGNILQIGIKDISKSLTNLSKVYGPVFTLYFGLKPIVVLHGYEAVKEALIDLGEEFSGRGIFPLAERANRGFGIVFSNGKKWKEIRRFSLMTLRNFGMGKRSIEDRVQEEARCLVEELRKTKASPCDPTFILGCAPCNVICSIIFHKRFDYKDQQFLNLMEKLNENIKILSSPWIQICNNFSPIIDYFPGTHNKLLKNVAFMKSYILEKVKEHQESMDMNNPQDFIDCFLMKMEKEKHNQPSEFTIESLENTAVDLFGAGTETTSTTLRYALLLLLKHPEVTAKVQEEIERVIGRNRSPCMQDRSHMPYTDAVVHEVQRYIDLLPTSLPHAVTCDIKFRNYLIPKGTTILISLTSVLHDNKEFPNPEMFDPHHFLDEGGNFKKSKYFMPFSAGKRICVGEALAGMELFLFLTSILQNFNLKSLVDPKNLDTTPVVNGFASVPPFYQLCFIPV

Which EC50 [1] does the source give for `C#CC[N+]1(CC#Cc2ccccc2)CCCCC1` here?
The EC50 was > 260 µM (inactive).

What does the source list for `CC(=O)n1c(Cl)c(NC(=O)CCl)c2ccccc21`?
EC50 (BJ [2]): 25.1 µM (active); EC50 (BJ [3]): > 150 µM (not active); EC50 (BJ [4]): > 150 µM (not active); EC50 [5]: 29.7 µM (active)

Which results are given for `Cc1nc2c(s1)sc1ccccc12`?
IC50 [6]: > 47.1 µM (inactive); EC50 [7]: > 53 µM (inactive)

With `O=C(Cn1c(SCC(=O)N2CCCc3ccccc32)nc2ccccc21)N1CCCC1` as the molecule, how does the EC50 (cells [8]) read?
The EC50 was > 350 µM (not active).

And the EC50 (cells [9])?
Its EC50 is > 350 µM (not active).

Which EC50 [10] does the source give for `Cc1ccc(S(=O)(=O)Nc2cc(-c3nn(C)c(=O)c4ccccc34)ccc2N2CCOCC2)cc1` here?
Its EC50 is > 60 µM (not active).

And the EC50 [11]?
The EC50 was > 120 µM (not active).

What about the EC50 [12] of the same molecule?
The EC50 was 10.8 µM (active).

Which IC50 [6] does the source give for `Cc1cc(C)n2nc(/C(C#N)=C/c3ccccc3)c(C#N)c2n1` here?
Its IC50 is > 47.1 µM (inactive).

What about the EC50 [7] of the same molecule?
Its EC50 is > 53 µM (inactive).

What does the source list for `CCOc1ccc(/C=N/NC(=O)CN2CCCCCCC2)cc1`?
IC50 [6]: > 47.1 µM (inactive); EC50 [7]: > 53 µM (inactive)

With `Cc1nc2cc3[nH]c(C(F)(F)F)nc3cc2[nH]1` as the molecule, how does the EC50 [1] read?
Its EC50 is > 260 µM (inactive).

For `CCCC1(C(=O)OC)NC(c2ccco2)C2C(=O)N(C)C(=O)C21` (stereo not given), which EC50 [10] is on record?
Its EC50 is > 120 µM (not active).

What about the EC50 [11] of the same molecule?
Its EC50 is > 120 µM (not active).

What about the EC50 [12] of the same molecule?
The EC50 was > 120 µM (not active).

For `COc1ccc(N2CCN(C(=O)c3csc4ccccc34)CC2)cc1`, which IC50 [6] is on record?
The IC50 was > 47.1 µM (inactive).

What about the EC50 [7] of the same molecule?
Its EC50 is > 53 µM (inactive).

Which results are given for `CN(CCCNC(=O)CCCOc1cc(=O)n(C)c2ccccc12)Cc1ccccc1`?
EC50 [13]: > 160 µM (inactive); EC50 [14]: > 38 µM (not active); EC50 [15]: 460 nM (active); EC50 [16]: > 30 µM (not active)

With `COc1cc2nc(S)nc(NCc3cccs3)c2cc1OC` as the molecule, how does the EC50 [1] read?
The EC50 was > 260 µM (inactive).

What does the source list for `CCCCc1ccc(-c2ccc(C)cc2O)nc1`?
EC50 [11]: 11.7 µM (inconclusive); EC50 [12]: 4.33 µM (active)

Which EC50 [1] does the source give for `Cc1ccc(-n2nc3c(c2NC(=O)c2ccc4c(c2)OCO4)CSC3)c(C)c1` here?
The EC50 was > 260 µM (inactive).

Which results are given for `C=CCNC(=S)N/N=C/c1ccc(OCc2ccccc2)cc1`?
IC50 [6]: > 47.1 µM (inactive); EC50 [7]: > 53 µM (inactive); AC50 (Cytochrome P450 2C9): 15.8 µM (inconclusive)

What does the source list for `CCCCCCC1CCC(c2nc(-c3ccncc3)no2)CC1` (stereo not given)?
EC50 (cells [8]): > 350 µM (not active); EC50 (cells [9]): > 350 µM (not active)

For `CCOC(=O)C(CC)(CC)C(=O)/C=C/c1cccc(Br)c1`, which EC50 (BJ [2]) is on record?
Its EC50 is 10 µM (active).

And the EC50 (BJ [3])?
Its EC50 is 16.6 µM (active).

What about the EC50 (BJ [4]) of the same molecule?
Its EC50 is 10.7 µM (inconclusive).

What about the EC50 [5] of the same molecule?
The EC50 was 9.57 µM (active).

Which EC50 [17] does the source give for `CCCc1nc2oc3c(O)ncnc3c2c2c1CCCC2` here?
The EC50 was > 112 µM (not active).
